Assay results reported in patent US6355799B1, “Substituted benzene compounds, process for their preparation, and herbicidal and defoliant compositions containing them” (ISK Americas Incorporated, priority 1997, dated 2002).

Columns and labels:
Assay type in all cases: in vivo
[1] = system: redroot pigweed (Amaranthus retroflexus, AMARE); assay: Pre-emerge test, greenhouse herbicide activity screening; conditions: phytotoxicity rating 0-100, 14 days after application
Summary of the method: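 Rating: 0–100 visual injury, 14 DAA. Application: acetone, 187 l/ha, 15–1000 g ai/ha, flat-fan track sprayer with nozzle 40–45 cm above soil or canopy. Post-emerge runs used 0.25% v/v surfactant on 2–3 leaf plants.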

[2] = system: barnyardgrass (Echinochloa crus-galli, ECHCG); assay: as above; conditions: phytotoxicity rating 0-100, 14 days after application
Summary of the method: (§1)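 Compounds in acetone were track-sprayed at 15-1000 g ai/ha (187 l/ha) on sandy loam pots: pre-emerge one day after seeding, post-emerge at 2-3 leaf stage with 0.25% v/v non-ionic surfactant. Phytotoxicity was rated 14 days later on a 0 (no damage) to 100 (complete death) scale.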

[3] = system: common ragweed (Ambrosia artemisizfolia L., AMBEL); assay: as above; conditions: phytotoxicity rating 0-100, 14 days after application
Summary of the method: as §1

[4] = system: green foxtail (Setaria viridis, SETVI); assay: as above; conditions: phytotoxicity rating 0-100, 14 days after application
Summary of the method: as §1

[5] = system: ivyleaf morningglory (Ipomoea hederacea, IPOHE); assay: as above; conditions: phytotoxicity rating 0-100, 14 days after application
Summary of the method: as §1

[6] = system: johnsongrass (Sorghum halepense, SORHA); assay: as above; conditions: phytotoxicity rating 0-100, 14 days after application
Summary of the method: as §1

[7] = system: lambsquarters (Chenopodium album, CHEAL); assay: as above; conditions: phytotoxicity rating 0-100, 14 days after application
Summary of the method: as §1

[8] = system: large crabgrass (Digitaria sanguinalis, DIGSA); assay: as above; conditions: phytotoxicity rating 0-100, 14 days after application
Summary of the method: as §1

[9] = system: sicklepod (Cassia obtusifolia, CASOB); assay: as above; conditions: phytotoxicity rating 0-100, 14 days after application
Summary of the method: as §1

[10] = system: velvetleaf (Abutilon theophrasti, ABUTH); assay: as above; conditions: phytotoxicity rating 0-100, 14 days after application
Summary of the method: as §1

[11] = system: field corn (Zea mays L., var. Dekalb 535, CORN); assay: Pre-emerge test, crop safety; conditions: crop damage rating 0-100, 14 days after application
Summary of the method: as §1

[12] = system: upland rice (Oryza sp., var. Tebonnet, RICE); assay: Pre-emerge test, crop safety; conditions: crop damage rating 0-100, 14 days after application
Summary of the method: as §1

[13] = system: barnyardgrass (Echinochloa crus-galli, ECHCG); assay: Post-emerge test, greenhouse herbicide activity screening; conditions: post-emerge, 14 days after application, rating scale 0-100
Summary of the method: (§2)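 Fourteen days after spraying, crop and weed injury was graded visually from 0, no effect, to 100, every plant dead. Test substances were dissolved in acetone and applied at 15–1000 g ai/ha with a flat-fan nozzle. Application was either pre-emergence, one day after sowing, or post-emergence at the 2–3 leaf stage.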

[14] = system: common ragweed (Ambrosia artemisizfolia L., AMBEL); assay: as above; conditions: post-emerge, 14 days after application, rating scale 0-100
Summary of the method: as §2

[15] = system: green foxtail (Setaria viridis, SETVI); assay: as above; conditions: post-emerge, 14 days after application, rating scale 0-100
Summary of the method: as §2

[16] = system: ivyleaf morningglory (Ipomoea hederacea, IPOHE); assay: as above; conditions: post-emerge, 14 days after application, rating scale 0-100
Summary of the method: as §2

[17] = system: johnsongrass (Sorghum halepense, SORHA); assay: as above; conditions: post-emerge, 14 days after application, rating scale 0-100
Summary of the method: as §2

[18] = system: lambsquarters (Chenopodium album, CHEAL); assay: as above; conditions: post-emerge, 14 days after application, rating scale 0-100
Summary of the method: as §2

[19] = system: large crabgrass (Digitaria sanguinalis, DIGSA); assay: as above; conditions: post-emerge, 14 days after application, rating scale 0-100
Summary of the method: as §2

[20] = system: redroot pigweed (Amaranthus retroflexus, AMARE); assay: as above; conditions: post-emerge, 14 days after application
Summary of the method: as §2

[21] = system: sicklepod (Cassia obtusifolia, CASOB); assay: as above; conditions: post-emerge, 14 days after application, rating scale 0-100
Summary of the method: as §2

[22] = system: velvetleaf (Abutilon theophrasti, ABUTH); assay: as above; conditions: post-emerge, 14 days after application, rating scale 0-100
Summary of the method: as §2

[23] = system: field corn (Zea mays L., var. Dekalb 535, CORN); assay: Post-emerge test, crop safety; conditions: post-emerge, 14 days after application, rating scale 0-100
Summary of the method: as §1

[24] = system: upland rice (Oryza sp., var. Tebonnet, RICE); assay: Post-emerge test, crop safety; conditions: post-emerge, 14 days after application, rating scale 0-100
Summary of the method: as §1

Cn1c(C(F)(F)F)cc(=O)n(-c2ccc(C(N)=S)cc2NC(=O)c2ccc3ccccc3c2)c1=O [2-205]
99: Pre-emerge Herbicidal Activity ECHCG ([2]; 250 g ai/ha) | Pre-emerge Herbicidal Activity DIGSA ([8]; 250 g ai/ha)
80: Pre-emerge Herbicidal Activity ECHCG ([2]; 63 g ai/ha) | Pre-emerge Herbicidal Activity AMBEL ([3]; 63 g ai/ha)
0: Pre-emerge Herbicidal Activity IPOHE ([5]; 63 g ai/ha) | Pre-emerge Herbicidal Activity CASOB ([9]; 63 g ai/ha) | Pre-emerge Herbicidal Activity CORN ([11]; 63 g ai/ha) | phytotoxicity rating ECHCG ([13]; 63 g ai/ha) | phytotoxicity rating ECHCG ([13]; 250 g ai/ha) | phytotoxicity rating SORHA ([17]; 63 g ai/ha) | phytotoxicity rating SORHA ([17]; 250 g ai/ha)
85: Pre-emerge Herbicidal Activity SORHA ([6]; 250 g ai/ha)
10: phytotoxicity rating SETVI ([15]; 63 g ai/ha) | phytotoxicity rating SETVI ([15]; 250 g ai/ha) | phytotoxicity rating DIGSA ([19]; 63 g ai/ha) | phytotoxicity rating DIGSA ([19]; 250 g ai/ha) | phytotoxicity rating CORN (crop damage) ([23]; 63 g ai/ha)
50: Pre-emerge Herbicidal Activity CORN ([11]; 250 g ai/ha)
100: Pre-emerge Herbicidal Activity AMARE ([1]; 63 g ai/ha) | Pre-emerge Herbicidal Activity AMARE ([1]; 250 g ai/ha) | Pre-emerge Herbicidal Activity SETVI ([4]; 250 g ai/ha) | Pre-emerge Herbicidal Activity CHEAL ([7]; 63 g ai/ha) | Pre-emerge Herbicidal Activity CHEAL ([7]; 250 g ai/ha) | Pre-emerge Herbicidal Activity ABUTH ([10]; 63 g ai/ha) | Pre-emerge Herbicidal Activity ABUTH ([10]; 250 g ai/ha) | phytotoxicity rating AMBEL ([14]; 250 g ai/ha) | phytotoxicity rating IPOHE ([16]; 63 g ai/ha) | phytotoxicity rating CASOB ([21]; 250 g ai/ha) | phytotoxicity rating ABUTH ([22]; 63 g ai/ha) | phytotoxicity rating ABUTH ([22]; 250 g ai/ha)
30: phytotoxicity rating RICE (crop damage) ([24]; 63 g ai/ha) | phytotoxicity rating RICE (crop damage) ([24]; 250 g ai/ha)
95: Pre-emerge Herbicidal Activity IPOHE ([5]; 250 g ai/ha)
90: Pre-emerge Herbicidal Activity AMBEL ([3]; 250 g ai/ha) | phytotoxicity rating AMARE ([20]; 63 g ai/ha, rating scale 0-100 (0 no damage, 100 complete death)) | phytotoxicity rating CASOB ([21]; 63 g ai/ha)
20: Pre-emerge Herbicidal Activity RICE ([12]; 63 g ai/ha) | phytotoxicity rating CORN (crop damage) ([23]; 250 g ai/ha)
40: Pre-emerge Herbicidal Activity SORHA ([6]; 63 g ai/ha) | Pre-emerge Herbicidal Activity CASOB ([9]; 250 g ai/ha) | phytotoxicity rating AMARE ([20]; 250 g ai/ha, rating scale 0-100)
70: Pre-emerge Herbicidal Activity SETVI ([4]; 63 g ai/ha) | Pre-emerge Herbicidal Activity DIGSA ([8]; 63 g ai/ha) | Pre-emerge Herbicidal Activity RICE ([12]; 250 g ai/ha) | phytotoxicity rating AMBEL ([14]; 63 g ai/ha) | phytotoxicity rating IPOHE ([16]; 250 g ai/ha) | phytotoxicity rating CHEAL ([18]; 63 g ai/ha) | phytotoxicity rating CHEAL ([18]; 250 g ai/ha)
